From patent US20220072149A1, “BIOLOGICALLY ACTIVE CLUSTER OF MOLECULES” (priority 2018, published 2022)

Columns and labels:
HeLa cells = test: HeLa cell viability assay (MTS): inhibition of SO1861-mediated endosomal escape by polymeric structures; assay type: cell-based, human; conditions: […] dianthin-EGF + SO1861 curve, PAMAM 500 nM, chloroquine 500 nM, dendron 667 nM, 72 hr
Protocol: HeLa cells were seeded in DMEM (PAN-Biotech GmbH) supplemented with 10% fetal bovine serum (PAN-Biotech GmbH) and 1% penicillin/streptomycin (PAN-Biotech GmbH), in a 96 well plate at 5,000 c/w in 100 μL/well and incubated overnight at 37° C. and 5% CO2. The next day 20× concentrated stocks of the PAMAM, PAMAM-conjugates, G4-dendron (prepared in Example 3) or chloroquine (Sigma Aldrich) samples were prepared in DMEM. The media was removed from the cell culture plate and replaced by […] culture media, followed by the addition of 10 μL sample/well (from the 20× concentrated stocks) and a 45 min incubation at 37° C. […] Followed by 15 sec sonication and a brief re-heating at 50° C. for 1 min, while shaking at 1,250 rpm. Subsequently a serial dilution of SO1861 was prepared in PBS.
As control for the inhibition of endosomal acidification chloroquine was used.

HER14 cells = test: viability assay with HER14 cells (MTT); assay type: cell-based; conditions: 0.1 nM dianthin-EGF, 72 h
Protocol: To test the efficacy of the invention, we conducted a viability assay with HER14 cells. These cells are fibroblasts stably transfected with the human epidermal growth factor receptor and therefore target cells for the targeted toxin dianthin-EGF. HER14 cells (2,000 cells/100 μL/well) were seeded into wells of 96-well-cell culture plates and incubated for 24 h in DMEM medium supplemented with 10% fetal calf serum and 1% penicillin/streptomycin at 37° C., 5% CO2 and 98% humidity. The different test substances (see results and FIG. 21) were then added in triplicates in a volume of 25 μL and supplemented with further 25 μL of medium. After an incubation of 72 h, 30 μL 3-(4,5-dimethylthiazol-2-yl)-2,5-diphenyltetrazolium bromide (0.5 mg/mL in water) was added per well and incubated for 2 h. Thereafter, the medium was carefully removed and replaced by an aqueous solution containing 10% (v/v) isopropanol, 5% (w/v) sodium dodecyl sulfate and 400 mM HCl, and incubated for 5 min. Solubilized formazan was photometrically quantitated at […] in a microplate reader (Spectra MAX 340 PC, Molecular Devices, Sunnyvale, Calif., USA). Untreated cells were normalized to 1 and all samples referred to the untreated control. Significance was determined by unpaired two-sample t-tests.

For `CCN(CC)CCCC(C)Nc1ccnc2cc(Cl)ccc12` (centres unmarked) [chloroquine], the “inhibition of SO1861-mediated endosomal escape of the targeted toxin and subsequent cell killing” value (HeLa cells) was “inhibit”.

`C[C@@H]1O[C@@H](O[C@H]2[C@H](OC(=O)[C@]34CCC(C)(C)C[C@H]3C3=CC[C@@H]5[C@@]6(C)CC[C@H](O[C@H]7O[C@H](C(=O)O)[C@@H](O)[C@H](O[C@@H]8OC[C@@H](O)[C@H](O)[C@H]8O)[C@H]7O[C@@H]7O[C@H](CO)[C@H](O)[C@H](O)[C@H]7O)[C@@](C)(C=O)[C@@H]6CC[C@@]5(C)[C@]3(C)CC4)O[C@H](C)[C@H](O[C@@H]3O[C@H](C)[C@@H](O)[C@H](O)[C@H]3O)[C@@H]2O)[C@H](O)[C@H](O)[C@H]1O[C@@H]1OC[C@@H](O)[C@H](O[C@@H]2OC[C@@H](O)[C@H](O)[C@H]2O)[C@H]1O` [SA1641] was tested, and the “effect on the toxicity of dianthin-EGF” value (HER14 cells) was “death of al cells”.
